Assay results taken from US10005767B2, “Compositions and methods for inhibition of the JAK pathway” (Rigel Pharmaceuticals, Inc., priority 2009, dated 2018).
Where a name gives a salt, the structure may show the parent alone.

What follows are molecules tested on human primary T-cells, IL-2 stimulated proliferation (JAK-1 and JAK-3 dependent; reported as JAK3 activity) (assay: Human primary T-cell proliferation stimulated by IL-2 (Example 3)). Conditions: Homo sapiens, T-cell, tested under conditions described in Example 3 (IL-2 stimulated human primary T-cell proliferation); read-out: ability to inhibit JAK3 activity, IC50 range (Table V).
Type: cell-based
Procedure, shortened: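 Peripheral-blood human T-cells pre-activated via TCR/CD28, IL-2-starved overnight, then cultured 72 h at 37 °C with compound in Yssel's medium containing IL-2 (80 U/mL in cell suspension). Proliferation read as viable-cell ATP by CellTiter-Glo luminescence; reduction versus control taken as JAK pathway inhibition.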
In the case of `Cc1cnc(Nc2ccc(N3CCN(C)CC3)nc2)nc1Nc1ccc2oc(=O)n(C)c2c1` [II-22, N2-(6-(4-methylpiperazin-1-yl)pyridin-3-yl)-N4-(3-methyl-2-oxo-2,3-dihydrobenzo[d]oxazol-5-yl)-5-methylpyrimidine-2,4-diamine], the IC50 is reported as < 0.5 µM.
In the case of `Cc1cnc(Nc2ccc(N3CCN(C)CC3)nc2)nc1Nc1ccc2c(c1)oc(=O)n2C` [II-23, N2-(6-(4-methylpiperazin-1-yl)pyridin-3-yl)-N4-(3-methyl-2-oxo-2,3-dihydrobenzo[d]oxazol-6-yl)-5-methylpyrimidine-2,4-diamine trifluoroacetate salt], the IC50 is reported as < 0.5 µM.
`CN1CCN(c2ccc(Nc3ncc(F)c(Nc4ccc5oc(=O)n(C)c5c4)n3)cn2)CC1` [II-24, N2-(6-(4-methylpiperazin-1-yl)pyridin-3-yl)-N4-(3-methyl-2-oxo-2,3-dihydrobenzo[d]oxazol-5-yl)-5-fluoropyrimidine-2,4-diamine] gave an IC50 of 0.5 to 5 µM.
In the case of `Cc1cnc(Nc2ccc(N3CCN(C)CC3)nc2)nc1Nc1ccc2[nH]c(=O)oc2c1` [II-25, 6-(5-methyl-2-(6-(4-methylpiperazin-1-yl)pyridin-3-ylamino)pyrimidin-4-ylamino)benzo[d]oxazol-2(3H)-one], the IC50 is reported as < 0.5 µM.
`Cc1cnc(Nc2cnc(N3CCN(C)CC3)c(C)c2)nc1Nc1ccc2oc(=O)[nH]c2c1` [II-26, N4-(benzoxazolin-2-on-5-yl)-N2-[3-methyl-2-(4-methylpiperazin-1-yl)pyridin-5-yl]-5-methylpyrimidine-2,4-diamine] was tested, and the IC50 was < 0.5 µM.
In the case of `Cc1cnc(Nc2cnc(N3C[C@@H]4C[C@H]3CN4C)c(C)c2)nc1Nc1ccc2oc(=O)[nH]c2c1` [II-28, N4-(benzoxazolin-2-on-5-yl)-N2-[3-methyl-2-((1S,4S)-5-methyl-2,5-diazabicyclo[2.2.1]heptan-2-yl)pyridin-5-yl]-5-methylpyrimidine-2,4-diamine], the IC50 is reported as < 0.5 µM.
For `Cc1cc(Nc2ncc(F)c(Nc3ccc4oc(=O)[nH]c4c3)n2)cnc1N1CCN(C)CC1` [II-30, N4-(benzoxazolin-2-on-5-yl)-N2-[3-methyl-2-(4-methylpiperazin-1-yl)pyridin-5-yl]-5-fluoropyrimidine-2,4-diamine], the IC50 was < 0.5 µM.
In the case of `Cc1cnc(Nc2ccc(N3C[C@@H]4C[C@H]3CN4C)nc2)nc1Nc1ccc2oc(=O)[nH]c2c1` [II-31, N4-(benzoxazolin-2-on-5-yl)-N2-[2-((1S,4S)-5-methyl-2,5-diazabicyclo[2.2.1]heptan-2-yl)pyridin-5-yl]-5-methylpyrimidine-2,4-diamine], the IC50 is reported as < 0.5 µM.
For `Cc1cnc(Nc2ccc(N3C[C@@H]4C[C@H]3CO4)nc2)nc1Nc1ccc2oc(=O)[nH]c2c1` [II-32, N4-(benzoxazolin-2-on-5-yl)-N2-[2-((1S,4S)-2-oxa-5-azabicyclo[2.2.1]heptan-5-yl)pyridin-5-yl]-5-methylpyrimidine-2,4-diamine], the IC50 was < 0.5 µM.
In the case of `O=c1[nH]c2cc(Nc3nc(Nc4ccc(N5C[C@@H]6C[C@H]5CO6)nc4)ncc3F)ccc2o1` [II-34, N4-(benzoxazolin-2-on-5-yl)-N2-[2-((1S,4S)-2-oxa-5-azabicyclo[2.2.1]heptan-5-yl)pyridin-5-yl]-5-fluoropyrimidine-2,4-diamine], the IC50 is reported as < 0.5 µM.
For `Cc1cnc(Nc2ccc(NC3CCN(C)CC3)nc2)nc1Nc1ccc2oc(=O)[nH]c2c1` [II-35, N4-(benzo[d]oxazol-2(3H)-on-5-yl)-N2-[2-(1-methylpiperidin-4-yl)aminopyridin-5-yl]-5-methylpyrimidine-2,4-diamine], the IC50 was < 0.5 µM.
Work on `Cc1cnc(Nc2ccc(NC3CC4CCC(C3)N4C)nc2)nc1Nc1ccc2oc(=O)[nH]c2c1` (stereo not shown) [II-37, N4-(benzo[d]oxazol-2(3H)-on-5-yl)-N2-[2-(8-methyl-8-aza-bicyclo[3.2.1]oct-3-yl)aminopyridin-5-yl]-5-methylpyrimidine-2,4-diamine] yielded an IC50 of 0.5 to 5 µM.
With `Cc1cnc(Nc2cnc(N3CCN(C)CC3)c(C(F)(F)F)c2)nc1Nc1ccc2oc(=O)[nH]c2c1` [II-39, N4-(benzo[d]oxazolin-2(3H)-on-5-yl)-N2-[3-trifluoromethyl-2-(4-methylpiperazin-1-yl)pyridin-5-yl]-5-methylpyrimidine-2,4-diamine] the IC50 was < 0.5 µM.
In the case of `Cc1cnc(Nc2cnc(N3C[C@@H]4C[C@H]3CN4C)c(F)c2)nc1Nc1ccc2oc(=O)[nH]c2c1` [II-40, N4-(benzoxazolin-2-on-5-yl)-N2-[3-fluoro-2-((1S,4S)-5-methyl-2,5-diazabicyclo[2.2.1]heptan-2-yl)pyridin-5-yl]-5-methylpyrimidine-2,4-diamine], the IC50 is reported as < 0.5 µM.
With `Cc1cnc(Nc2ccc(N3CCN(C(=O)OC(C)(C)C)[C@@H](C)C3)nc2)nc1Nc1ccc2oc(=O)[nH]c2c1` [II-41, (S)-2-Methyl-4-{5-[5-methyl-4-(2-oxo-2,3-dihydro-benzooxazol-5-ylamino)-pyrimidin-2-ylamino]-pyridin-2-yl}-piperazine-1-carboxylic acid tert-butyl ester] the IC50 was < 0.5 µM.
`Cc1cnc(Nc2cccnc2)nc1Nc1ccc2oc(=O)[nH]c2c1` [II-42, 5-[5-Methyl-2-(pyridin-3-ylamino)-pyrimidin-4-ylamino]-3H-benzooxazol-2-one] gave an IC50 of 0.5 to 5 µM.
With `Cc1cnc(Nc2ccc(S(C)(=O)=O)nc2)nc1Nc1ccc2oc(=O)[nH]c2c1` [II-43, 5-[2-(6-Methanesulfonyl-pyridin-3-ylamino)-5-methyl-pyrimidin-4-ylamino]-3H-benzooxazol-2-one] the IC50 was < 0.5 µM.
`Cc1cnc(Nc2ccc(N3CCN[C@@H](C)C3)nc2)nc1Nc1ccc2oc(=O)[nH]c2c1` [II-44, 5-{5-Methyl-2-[6-((S)-3-methyl-piperazin-1-yl)-pyridin-3-ylamino]-pyrimidin-4-ylamino}-3H-benzooxazol-2-one] was tested, and the IC50 was < 0.5 µM.
`Cc1cnc(Nc2ccc(C(=O)N3CCNCC3)nc2)nc1Nc1ccc2oc(=O)[nH]c2c1` [II-45, 5-{5-Methyl-2-[6-(piperazine-1-carbonyl)-pyridin-3-ylamino]-pyrimidin-4-ylamino}-3H-benzooxazol-2-one] was tested, and the IC50 was < 0.5 µM.
`Cc1cnc(Nc2ccc(C(=O)N3CCN(CC4CC4)CC3)nc2)nc1Nc1ccc2oc(=O)[nH]c2c1` [II-46, 5-{2-[6-(4-Cyclopropylmethyl-piperazine-1-carbonyl)-pyridin-3-ylamino]-5-methyl-pyrimidin-4-ylamino}-3H-benzooxazol-2-one] was tested, and the IC50 was 0.5 to 5 µM.
`Cc1cnc(Nc2ccc(C(=O)N3CCN(CC(C)C)CC3)nc2)nc1Nc1ccc2oc(=O)[nH]c2c1` [II-47, 5-{2-[6-(4-Isobutyl-piperazine-1-carbonyl)-pyridin-3-ylamino]-5-methyl-pyrimidin-4-ylamino}-3H-benzooxazol-2-one] was tested, and the IC50 was < 0.5 µM.
`Cc1cnc(Nc2cnc(N3CC4CN(C(=O)OC(C)(C)C)CC4C3)c(F)c2)nc1Nc1ccc2oc(=O)[nH]c2c1` (stereo not shown) [II-48, 5-{3-Fluoro-5-[5-methyl-4-(2-oxo-2,3-dihydro-benzooxazol-5-ylamino)-pyrimidin-2-ylamino]-pyridin-2-yl}-hexahydro-pyrrolo[3,4-c]pyrrole-2-carboxylic acid tert-butyl ester] was tested, and the IC50 was < 0.5 µM.
With `Cc1cnc(Nc2cnc(N3CC4CC3CN4C(=O)OC(C)(C)C)c(F)c2)nc1Nc1ccc2oc(=O)[nH]c2c1` (stereo not shown) [II-49, 5-{3-Fluoro-5-[5-methyl-4-(2-oxo-2,3-dihydro-benzooxazol-5-ylamino)-pyrimidin-2-ylamino]-pyridin-2-yl}-2,5-diaza-bicyclo[2.2.1]heptane-2-carboxylic acid tert-butyl ester] the IC50 was < 0.5 µM.
`Cc1cnc(Nc2cnc(N3CC4CNCC4C3)c(F)c2)nc1Nc1ccc2oc(=O)[nH]c2c1` (stereo not shown) [II-50, 5-{2-[5-Fluoro-6-(hexahydro-pyrrolo[3,4-c]pyrrol-2-yl)-pyridin-3-ylamino]-5-methyl-pyrimidin-4-ylamino}-3H-benzooxazol-2-one] was tested, and the IC50 was < 0.5 µM.
`Cc1cnc(Nc2cnc(N3CC4CC3CN4)c(F)c2)nc1Nc1ccc2oc(=O)[nH]c2c1` (stereo not shown) [II-51, 5-{2-[6-(2,5-Diaza-bicyclo[2.2.1]hept-2-yl)-5-fluoro-pyridin-3-ylamino]-5-methyl-pyrimidin-4-ylamino}-3H-benzooxazol-2-one] was tested, and the IC50 was < 0.5 µM.
In the case of `Cc1cnc(Nc2cnc(N3CC4CN(CC5CC5)CC4C3)c(F)c2)nc1Nc1ccc2oc(=O)[nH]c2c1` (stereo not shown) [II-52, 5-{2-[6-(5-Cyclopropylmethyl-hexahydro-pyrrolo[3,4-c]pyrrol-2-yl)-5-fluoro-pyridin-3-ylamino]-5-methyl-pyrimidin-4-ylamino}-3H-benzooxazol-2-one], the IC50 is reported as < 0.5 µM.

Same assay, conditions: tested under conditions described in Example 3 (IL-2 stimulated human primary T-cell proliferation); read-out: ability to inhibit JAK3 activity, IC50 range (Table V)
For `O=c1[nH]c2ccc(Nc3nc(Nc4ccc(N5CCOCC5)nc4)ncc3F)cc2[nH]1` [II-19, N4-(benzimidazolin-2-on-5-yl)-N2-((2-morpholinyl)pyridin-5-yl)-5-fluoropyrimidine-2,4-diamine], the IC50 was < 0.5 µM.
`Cc1cnc(Nc2ccc(N3CCN(C)CC3)nc2)nc1Nc1ccc2c(c1)n(C)c(=O)n2C` [II-20, N4-(1,3-dimethylbenzimidazolin-2-on-5-yl)-N2-[2-(4-methylpiperazino)pyridin-5-yl]-5-methylpyrimidine-2,4-diamine] was tested, and the IC50 was < 0.5 µM.
With `CN1CCN(c2ccc(Nc3ncc(F)c(Nc4ccc5c(c4)n(C)c(=O)n5C)n3)cn2)CC1` [II-21, N4-(1,3-dimethylbenzimidazolin-2-on-5-yl)-N2-[2-(4-methylpiperazino)pyridin-5-yl]-5-fluoropyrimidine-2,4-diamine] the IC50 was 0.5 to 5 µM.
In the case of `Cc1cnc(Nc2cnc(N3CCN(C)CC3)c(C)c2)nc1Nc1ccc2[nH]c(=O)[nH]c2c1` [II-27, N4-(benzimidazolin-2-on-5-yl)-N2-[3-methyl-2-(4-methylpiperazin-1-yl)pyridin-5-yl]-5-methylpyrimidine-2,4-diamine], the IC50 is reported as < 0.5 µM.
`Cc1cnc(Nc2ccc(NC3CCNCC3)nc2)nc1Nc1ccc2oc(=O)[nH]c2c1` [II-36, N4-(benzo[d]oxazol-2(3H)-on-5-yl)-N2-[2-(1H-piperidin-4-yl)aminopyridin-5-yl]-5-methylpyrimidine-2,4-diamine] was tested, and the IC50 was < 0.5 µM.
